The text below walks through data of patent US20250270227A1, “CAMPTOTHECIN DERIVATIVE, AND PHARMACEUTICAL COMPOSITION AND USE THEREOF” (SIMCERE ZAIMING PHARMACEUTICAL CO., LTD., priority 2021, published 2025).

The test system of experiment [1] is human breast cancer cell line SKBR3. The experiment can be described thus: Test 1 of anti-proliferative activity against tumor cells (Cell-Titer Glo). It counts as cell-based. The note with it: Homo sapiens, SK-BR-3, 120 h, read-out: SKBR3 Anti-proliferative activity IC50 (nM), SKBR3 cells, cultured 5 days with compound, Cell-Titer Glo. As for the experimental part: (§1) Cell culture: HCT116 cells and SKBR3 cells were cultured in McCoy's 5a medium containing 10% fetal bovine serum+1% penicillin-streptomycin at 37° C. and 5% CO2, and OVCAR3 cells were cultured in 1640 medium containing 20% fetal bovine serum+2 μg/mL bovine insulin+1% penicillin-streptomycin at 37° C. and 5% CO2. Cells in logarithmic growth phase were suitable for the experiment.
(§2) Detection of cell proliferation activity: The inhibitory activity of the compounds on the proliferation of the three cell lines HCT116, SKBR3 and OVCAR3 was detected using Cell-Titer Glo reagent. HCT116 cells (1500 cells per well), SKBR3 cells (3000 cells per well) and OVCAR3 cells (5000 cells per well) were seeded in 96-well plates and cultured at 37° C. and 5% CO2 for 24 h. The solution of the compound to be tested (the compound was dissolved in DMSO with the concentration of the compound being 1 mM, then the compound was diluted to 3 μM with DMSO, with 3-fold dilution and a total of 9 concentrations, and 10 μL of the prepared compound solution was transferred to a 96-well plate with the final concentration of 0-300 nM) was added. The cells were placed at 37° C. and 5% CO2 for further culture. HCT116 cells were cultured for 3 days, and SKBR3 cells and OVCAR3 cells were cultured for 5 days. The cell viability was detected by adding Cell-Titer Glo reagent.
(§3) Additionally, a negative control group and a positive control group were provided as Bottom and Top, respectively. In the negative control group, the cells were not added, only the same volume of medium was added, and other operations were consistent with those in the experimental group; in the positive control group, the test compound was not added, only the same volume of DMSO was added, and other operations were consistent with those in the experimental group.
(§4) Data analysis: The % compound inhibition was calculated, and fitting was performed to obtain IC50 of the compound.
(§5) % Compound inhibition=1−100%*(Signal−Bottom)/(Top−Bottom).
(§6) Signal represents the signal value of the experimental group, Bottom represents the average signal value of the negative control group, and Top represents the average signal value of the positive control group.

Experiment [2] concerns Human colorectal cancer cell line HCT116. Described as above. It counts as cell-based. The note with it: Homo sapiens, HCT-116, 72 h, read-out: HCT116 Anti-proliferative activity IC50 (nM), HCT116 cells, cultured 3 days with compound, Cell-Titer Glo. As for the experimental part: as §1, §2, §3, §4, §5, §6

With `CC[C@@]1(O)C(=O)OCc2c1cc1n(c2=O)Cc2c-1nc1cc3c(cc1c2CNC(=O)CO)OCCO3` [Compound 1, (S)-N-((8-ethyl-8-hydroxy-9,12-dioxo-2,3,8,9,12,14-hexahydro-11H-[1,4]dioxino[2,3-g]pyrano[3′,4′:6,7]indolizino[1,2-b]quinolin-15-yl)methyl)-2-hydroxyacetamide], the IC50 in experiment [1] turned out to be 8.5 nM; in experiment [2] it was 36.8 nM. As for `CC[C@@]1(O)C(=O)OCc2c1cc1n(c2=O)Cc2c-1nc1cc(F)c(Cl)cc1c2CN` [Compound 2, (S)-11-(aminomethyl)-9-chloro-4-ethyl-8-fluoro-4-hydroxy-1,12-dihydro-14H-pyrano[3′,4′:6,7]indolizino[1,2-b]quinoline-3,14(4H)-dione], the IC50 in experiment [1] is 2.5 nM; in experiment [2], 3.6 nM.

Consider `CC[C@@]1(O)C(=O)OCc2c1cc1n(c2=O)Cc2c-1nc1cc(F)c(Cl)cc1c2CNC(=O)CO` [Compound 3, (S)-N-((9-chloro-4-ethyl-8-fluoro-4-hydroxy-3,14-dioxo-3,4,12, 14-tetrahydro-1H-pyrano[3′,4′:6,7]indolizino[1,2-b]quinolin-11-yl)methyl)-2-hydroxyacetamid], for which the IC50 in experiment [1] was found to be 3.6 nM; in experiment [2], 18.2 nM. Consider `CC[C@@]1(O)C(=O)OCc2c1cc1n(c2=O)Cc2c-1nc1cc(F)c(Br)cc1c2CN` [Compound 4, (S)-11-(aminomethyl)-9-bromo-4-ethyl-8-fluoro-4-hydroxy-1,12-dihydro-14H-pyrano[3′,4′:6,7]indolizino[1,2-b]quinoline-3,14(4H)-dione], for which the values for the IC50 in experiment [1] and in experiment [2] were 2.7 nM and 3.6 nM, respectively. With `CC[C@@]1(O)C(=O)OCc2c1cc1n(c2=O)Cc2c-1nc1cc(F)c(Br)cc1c2CNC(=O)CO` [Compound 5, (S)-N-((9-bromo-4-ethyl-8-fluoro-4-hydroxy-3,14-dioxo-3,4, 12,14-tetrahydro-1H-pyrano[3′,4′:6,7]indolizino[1,2-b]quinolin-11-yl)methyl)-2-hydroxyacetamide], the IC50 came to 3.3 nM in experiment [1] and 16.9 nM in experiment [2]. As for `CC[C@@]1(O)C(=O)OCc2c1cc1n(c2=O)Cc2c-1nc1ccc3c(c1c2CNC(=O)CO)CCC3` [Compound 7, (S)-N-((8-ethyl-8-hydroxy-9,12-dioxo-2,3,8,9,12,14-hexahydro-1H,11H-cyclopentadieno[f]pyrano[3′,4′:6,7]indolizino[1,2-b]quinolin-15-yl)methyl)-2-hydroxyacetamide], the IC50 in experiment [2] worked out at 22.8 nM. Consider `CC[C@@]1(O)C(=O)OCc2c1cc1n(c2=O)Cc2cc3c(CNC(=O)CO)c(O)ccc3nc2-1` [Compound 8, (S)-N-((4-ethyl-4,9-dihydroxy-3,14-dioxo-3,4,12,14-tetrahydro-1H-pyrano[3′,4′:6,7]indolizino[1,2-b]quinolin-10-yl)methyl)-2-hydroxyacetamide], for which the IC50 in experiment [1] was 55.1 nM; in experiment [2], 289 nM. Consider `CC[C@@]1(O)C(=O)OCc2c1cc1n(c2=O)Cc2c-1nc1cc(F)c(C)cc1c2CNC(=O)C1(O)CC1` [Compound 9, (S)-N-((4-ethyl-8-fluoro-4-hydroxy-9-methyl-3,14-dioxo-3,4,12, 14-tetrahydro-1H-pyrano[3′,4′:6,7]indolizino[1,2-b]quinolin-11-yl)methyl)-1-hydroxycyclopropane-1-carboxamide], for which the IC50 in experiment [1] was 2.1 nM; in experiment [2] it was 4.6 nM. Regarding `CC[C@@]1(O)C(=O)OCc2c1cc1n(c2=O)Cc2c-1nc1cc(Cl)c(C)cc1c2CNC(=O)C1(O)CC1` [Compound 10, (S)-N-((8-chloro-4-ethyl-4-hydroxy-9-methyl-3,14-dioxo-3,4, 12,14-tetrahydro-1H-pyrano[3′,4′:6,7]indolizino[1,2-b]quinolin-11-yl)methyl)-1-hydroxycyclopropan-1-carboxamide], the IC50 in experiment [1] was determined as 2.3 nM; in experiment [2] it was 5.6 nM.

Regarding `CC[C@@]1(O)C(=O)OCc2c1cc1n(c2=O)Cc2c-1nc1cc(Cl)c(C)cc1c2CNC(=O)C(O)C1CC1` (stereo partly drawn) [Compound 11, N-(((S)-8-chloro-4-ethyl-4-hydroxy-9-methyl-3,14-dioxo-3,4, 12,14-tetrahydro-1H-pyrano[3′,4′:6,7]indolizino[1,2-b]quinolin-11-yl)methyl)-2-cyclopropyl-2-hydroxyacetamide], the IC50 turned out to be 3.2 nM in experiment [1] and 10.4 nM in experiment [2]. As to `CC[C@@]1(O)C(=O)OCc2c1cc1n(c2=O)Cc2c-1nc1cc(F)c(Cl)c(F)c1c2CN` [Compound 12, (S)-11-(aminomethyl)-9-chloro-4-ethyl-8,10-difluoro-4-hydroxy-1,12-dihydro-14H-pyrano[3′,4′:6,7]indolizino[1,2-b]quinoline-3,14(4H)-dione], the IC50 is 4.8 nM in experiment [1] and 13.7 nM in experiment [2]. Consider `CC[C@@]1(O)C(=O)OCc2c1cc1n(c2=O)Cc2c-1nc1cnc(Br)cc1c2CNC(=O)CO` [Compound 15, (S)-N-((9-bromo-4-ethyl-4-hydroxy-3,14-dioxo-3,4,12,14-tetrahydro-1H-pyrano[3′,4′:6,7]indolizino[1,2-b][1,7]naphthyridin-11-yl)methyl)-2-hydroxyacetamide], for which, in experiment [2], the IC50 turned out to be 81.3 nM. As for `CC[C@@]1(O)C(=O)OCc2c1cc1n(c2=O)Cc2c-1nc1cc(F)c(Cl)c(F)c1c2CNC(=O)C1(O)CC1` [Compound 16, (S)-N-((9-chloro-4-ethyl-8,10-difluoro-4-hydroxy-3,14-dioxo-3,4,12,14-tetrahydro-1H-pyrano[3′,4′:6,7]indolizino[1,2-b]quinolin-11-yl)methyl)-1-hydroxycyclopropane-1-carboxamide], the IC50 in experiment [1] was 2.3 nM; in experiment [2], 3 nM. The corresponding values for `CC[C@@]1(O)C(=O)OCc2c1cc1n(c2=O)Cc2c-1nc1cc(Cl)c(C)cc1c2CNC(=O)C(C)(C)O` [Compound 17, (S)-N-((8-chloro-4-ethyl-4-hydroxy-9-methyl-3,14-dioxo-3,4, 12,14-tetrahydro-1H-pyrano[3′,4′:6,7]indolizino[1,2-b]quinolin-11-yl)methyl)-2-hydroxy-2-methylpropanamide] are 2.7 nM and 6 nM. For the molecule `CC[C@@]1(O)C(=O)OCc2c1cc1n(c2=O)Cc2c-1nc1cc(Cl)c3occc3c1c2CNC(=O)CO` [Compound 27, (S)-N-((4-chloro-8-ethyl-8-hydroxy-9,12-dioxo-8,9,12,14-tetrahydro-11H-furo[3,2-f]pyrano[3′,4′:6,7]indolizino[1,2-b]quinolin-15-yl)methyl)-2-hydroxyacetamide], in experiment [2], the IC50 came out at 24.3 nM. For `CC[C@@]1(O)C(=O)OCc2c1cc1n(c2=O)Cc2c-1nc1cc(Cl)c3occc3c1c2CNC(=O)C(O)C1CC1` (stereo partly drawn) [Compound 28, N-(((S)-4-chloro-8-ethyl-8-hydroxy-9,12-dioxo-8,9,12,14-tetrahydro-11H-furo[3,2-f]pyrano[3′,4′:6,7]indolizino[1,2-b]quinolin-15-yl)methyl)-2-cyclopropyl-2-hydroxyacetamide], the IC50 in experiment [2] worked out at 8.8 nM. Regarding `CC[C@@]1(O)C(=O)OCc2c1cc1n(c2=O)Cc2c-1nc1cc3c(c([N+](=O)[O-])c1c2CNC(=O)C(O)C1CC1)OCO3` (stereo partly drawn) [Compound 29, 2-cyclopropyl-N-(((S)-7-ethyl-7-hydroxy-15-nitro-8,11-dioxo-7,8,11,13-tetrahydro-10H-[1,3]dioxolo[4,5-g]pyrano[3′,4′:6,7]indolizino[1,2-b]quinolin-14-yl)methyl)-2-hydroxyacetamide], the IC50 in experiment [2] amounted to 55.1 nM.
